# Measured values reported in patent US20260365684A1, “PHYTOSPHINGOSINE-3,4-CYCLICPHOSPHATE COMPOUND AND PHARMACEUTICAL COMPOSITION COMPRISING THE SAME” (AXCESO BIOPHARMA CO., LTD., priority 2022, published 2026).
# Key:
# SIRT1 = conditions: known value; read-out: EC50 as SIRT1 activator; cited from earlier work
# C57BL/6 mice = experiment: Survival in sepsis induced by cecal ligation and puncture (CLP); type: in vivo, mouse; conditions: 100 ng/mouse (5 μg/kg) at 6 and 16 hours after CLP; FIG. 8
# Experimental: C57BL/6 mice aged 7-8 weeks were purchased from Jabio (Suwon, Gyeonggi-do) and sepsis was induced by cecal ligation and puncture (CLP).
# Specifically, after anesthesia using 150 mg/kg of ketamine and 17.5 mg/kg of rompun, an abdominal incision of 1-2 cm was made to expose the cecum to induce sepsis. The cecum was ligated with 6-0 silk sutures at the distal end of the ileocecal valve, and a puncture was made with an 18-gauge needle. The perforated cecum was gently squeezed to push out 1-2 cm of feces, and the cecum was then retracted back into the abdominal cavity. The abdomen was then closed and pre-warmed normal saline (2.5 mL/100 g body weight) was injected into the mouse abdominal cavity immediately after the procedure. 6 and 16 hours after CLP treatment, the compound of formula (1a-1) was dissolved in phosphate buffered saline (PBS) and injected intravenously at 100 ng/mouse (5 μg/kg), and survival was examined for 10 days. […] In addition, as a drug-negative control, survival was examined in mice that received only PBS after CLP treatment.
# For comparison, we also examined the survival of a control group treated with fingolimod (FTY720), a known S1P modulator, instead of the compound of formula (1a-1) under the same conditions.
# [1] = system: tyrosine hydroxylase (TH); experiment: Tyrosine hydroxylase expression in differentiated SH-SY5Y dopaminergic neurons by western blot; type: cell-based, human; conditions: differentiated dopaminergic neurons treated with rotenone (RT); FIG. 6
# Experimental: (§1) To analyze the effect on the expression of tyrosine hydroxylase (TH) and α-synuclein as neuron-specific proteins, western blot was performed.
# (§2) SH-SY5Y cell line was treated with retinoic acid and 12-O-tetradecanoylphorbol-13-acetate (TPA) to induce differentiation into TH-secreting neurons for 6 days.
# (§3) Differentiated dopaminergic neurons were lysed in PRO-PREP (Intronbio), a cell lysis solution containing protease inhibitor cocktail (Gendepot), and electrophoresed in 10% SDS polyacrylamide gels at 20 μg/well. Transfer was performed using PVDF (Merck millipore) as a membrane, and tyrosine hydroxylase antibody, «-synuclein antibody (Cell signaling), and β-actin antibody (Santa Cruz) were used for reaction for more than 2 hours. Protein expression was detected by staining with ECL substrate (Biorad) for development and graphed using the image J program.
# α-synuclein = α-synuclein expression in differentiated SH-SY5Y dopaminergic neurons by western blot; type: cell-based, human; conditions: differentiated dopaminergic neurons treated with rotenone (RT); FIG. 6
# Experimental: as §1, §2, §3
smiles,measurement,setting,value
"CCCCCCCCc1ccc(CCC(N)(CO)CO)cc1 [FTY720, fingolimod, reference compound]",survival,C57BL/6 mice,did not improve survival
"C=C(C)[C@H]1Cc2c(ccc3c2O[C@@H]2COc4cc(OC)c(OC)cc4[C@@H]2C3=O)O1 [rotenone, reference compound]",expression of TH,[1],the expression of TH is decreased
same,expression of α-synuclein,α-synuclein,the expression of α-synuclein is increased
